Experimental data: patent US20100022514A1, “Heterocycle Compounds and Methods of Use Thereof” (NORVARTIS AG, priority 2006, published 2010)
Like-named read-outs stand apart in the source and are kept apart here.

Legend:
HDAC-1 = target: T1, HDAC-1 (Homo sapiens, UniProt Q13547); experiment: Deacetylase fluorescence assay (HDAC-1); format: biochemical
T1 construct: made in house
Method: Conventional methods are used to express deacetylase enzymes and purify them from lysed cells. The following example describes an exemplary procedure, however equivalent procedures are within the scope of the invention.
The cell line used is a derivative of 293 cells overexpressing a fusion of the gene encoding each deacetylase protein with a nucleotide sequence encoding the Flag marker.
Cells are grown in Optimem, 2% Fetal Calf Serum, Pen/Strep. For enzyme preparation, Lysis buffer (IPLS) is 50 mM Tris-HCl, pH 7.5, 120 mM NaCl, 0.5 mM EDTA and 0.5% Nonidet P-40, to which is added one tablet of Protease inhibitors (Roche 11836170001) per 10 ml buffer. Other buffers are IPHS, which is IPLS containing 1 M NaCl; TBS (Sigma #T5912) dilute 10× stock to 1× with dH2O; HD buffer: 10 mM Tris pH 8.0 (1M Stock) 10 mM NaCl (5M Stock), 10% glycerol, and for dialysis: 400 μM PMSF is added (for 2 L: use 8 ml 100 mM Stock). Protease inhibitors (Complete mini, Boehringer Mannheim), 1 tablet/10 mL are added to all buffers but not used in buffers for enzyme assays.
Cells are harvested without using trypsin, and most cells are obtained easily in PBS, with gentle striking or agitation of flasks if necessary. More adherent cells are scraped in PBS. Cells are grown in 500 cm^2 trays, from which about half of the media is aspirated (50 ml total), then cells are scraped in the rest of the media and transferred to a centrifuge tube. Trays are washed with 25 ml cold PBS, scraped again to collect additional cells, and centrifuged at 1500 rpm at 4° C. for 5 min. Cells are washed at least 3 times in PBS to remove growth media, pelleting cells after each wash by centrifugation at 1500 rpm for 5 minutes. After washing, PBS is removed and the resulting cell pellet frozen at −80° C. for storage prior to purification.
For purification, cells are resuspended in lysis buffer, 12 ml of IPLS for cells collected from 10 500 cm trays. Cells are lysed at 4° C. for 3 hrs with rocking, and debris is removed by centrifugation for 20 min at 17,000 rpm in 30 ml centrifuge tubes. If supernatant is not clear afterward, centrifugation of the supernatant is repeated. Protein concentration of the whole cell lysate is determined (generally in the range of about 2-5 mg/ml).
For immunoprecipitation per mg of protein, 15 μL of anti-Flag M2-Agarose Affinity beads (Sigma #A2220) is used. Beads are prepared by washing 3 times with 10× bead volume of PBS and 1 time with IPLS, with centrifugation of the washes at 1500 rpm for 5 min. Whole cell lysate is incubated with the Ab-beads overnight at 4° C. Then beads are centrifuged and washed in 5× volume of the following buffers: three times in IPLS (30 sec at 4° C., spin at 1500 RPM for 5 min); three times in IPHS; and three times in TBS buffer. After each centrifugation, the supernatant is aspirated, leaving the pellet as dry as possible but avoiding sucking up any of the beads.
To elute the enzyme, beads are resuspended in 5× bead volume of TBS with protease inhibitor (Roche 11836170001) 1 tablet/10 mL. Enzyme is eluted with 400 μg/mL Flag peptide (Sigma #F-3290) for 3 hrs at 4° C. on rotator. Then beads are centrifuged, and the supernatant is transferred to a new tube to which is added 1/10 volume of glycerol. The supernatant is transferred to a dialysis cassette (Pierce #66410) using a 3 cc syringe and 18 G needle, and is dialyze sup in 2 L HD buffer for 2 hrs at 4° C. (1 L/hour). The resulting purified deacetylase is divided into aliquots (300 μL/tube), is snap frozen in dry ice bath, and is stored at −80° C.
For assay of deacetylase an assay based on Deacetylase Fluorescent Activity Assay/Drug Discovery Kit (BioMol # AK500) is used, however any equivalent deacetylase assay is within the scope of the invention.
The Fluorescent Assay Buffer (FAB) contains: 25 mM Tris-HCl, pH 8.0, 137 mM NaCl, 2.7 mM KCl and 1 mM MgCl2. […]

[1] = system: p21 promoter (p21-luc) in H1299 cells; experiment: p21 promoter luciferase assay using stably transfected p21-luc in H1299 cells; format: cell-based; settings: Homo sapiens, NCI-H1299
Method: The cell lines used are derived from H1299 (p21-luc). The growth media used is RPMI 1640, 10% FBS, 1% Pen/Strep and the selection media added is 500 μg/mL Geneticin (Gibco). The buffer used is 5× cell culture lysis buffer (Promega #E1531), stored at −20 C and the Luciferase assay reagent (Promega #E1483) is stored at −70° C. The results of the assay are analyzed using Wallac Software.
To assay Luciferase, the cell culture medium is removed after one day of growth and the flasks are washed once with PBS. The cells are trypsinized in 20 mL of media and the trypsin is neutralized. The cells are counted (0.5-1 mL) on a Vi-Cell XR cell viability analyzer.
Cells are then diluted to a concentration of approximately 5000 cells/200 μL, and 190 μL samples are aliquoted into each well of a Costar white 96-well TC treated white bottom plate with lid (Costar #3917). Plates are then incubated overnight at 37 C.
After a further day, a sample of the compound is added to the wells for assay.
After a further day, the cells are lysed and the luciferase activity of the lysed cells is measured. Each well is washed twice with PBS and 20 μL/well of 1× cell culture lysis buffer (dilute 5× to 1× in distilled water) is added to each well. The microtiter plates are then shaken on a microtiter plate shaker for 20 minutes at room temperate at a speed setting of 5-6. After removal from the shaker, 100 μL of Luciferase Reagent is added to each well. Each microtiter plate is then read on Wallac Envision instrument.

T1 sequence (Q13547 whole entry): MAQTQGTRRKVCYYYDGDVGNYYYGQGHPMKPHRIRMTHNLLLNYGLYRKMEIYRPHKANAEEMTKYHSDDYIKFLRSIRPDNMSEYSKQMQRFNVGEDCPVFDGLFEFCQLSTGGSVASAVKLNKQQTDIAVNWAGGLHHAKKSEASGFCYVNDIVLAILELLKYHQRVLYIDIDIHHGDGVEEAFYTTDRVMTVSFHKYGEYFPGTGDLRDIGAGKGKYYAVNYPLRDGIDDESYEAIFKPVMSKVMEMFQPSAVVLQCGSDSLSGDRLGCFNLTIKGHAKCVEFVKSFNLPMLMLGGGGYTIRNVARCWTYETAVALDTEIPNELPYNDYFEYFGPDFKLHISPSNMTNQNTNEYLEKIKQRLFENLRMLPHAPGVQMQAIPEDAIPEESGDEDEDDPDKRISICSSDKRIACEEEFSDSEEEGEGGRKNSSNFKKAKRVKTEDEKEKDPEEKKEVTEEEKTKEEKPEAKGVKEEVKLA

SMILES	IC50 (HDAC-1; read-out: HDAC-1 IC50)	AC50 [1]	IC50 (HDAC-1)
O=C(/C=C/c1ccc2c(c1)CN(C(=O)c1cccc(C(F)(F)F)c1)C2)NO [Example 16, (E)-N-Hydroxy-3-[2-(3-trifluoromethyl-benzoyl)-2,3-dihydro-1H-isoindol-5-yl]-acrylamide]	100 to 1000 nM	> 1000 nM	–
O=C(/C=C/c1ccc2c(c1)CN(CCc1cnn3ccccc13)C2)NO [Example 28, (E)-N-Hydroxy-3-[2-(2-pyrazolo[1,5-a]pyridin-3-yl-ethyl)-2,3-dihydro-1H-isoindol-5-yl]-acrylamide]	< 100 nM	> 1000 nM	–
Cc1[nH]c2ccccc2c1CC(=O)N1CCc2ccc(/C=C/C(=O)NO)cc2C1 [Example 61, (E)-N-Hydroxy-3-{2-[2-(2-methyl-1H-indol-3-yl)-acetyl]-1,2,3,4-tetrahydro-isoquinolin-7-yl}-acrylamide]	< 100 nM	> 1000 nM	–
COc1cccc(C(=O)N2CCc3ccc(CCC(=O)NO)cc3C2)c1 [Example 60, N-Hydroxy-3-[2-(3-methoxy-benzoyl)-1,2,3,4-tetrahydro-isoquinolin-7-yl]-propionamide]	100 to 1000 nM	> 1000 nM	–
Cc1c(CCN2CCc3cc(/C=C/C(=O)NO)ccc3C2)cnn1-c1ccccc1 [Example 85, (E)-N-Hydroxy-3-{2-[2-(5-methyl-1-phenyl-1H-pyrazol-4-yl)-ethyl]-1,2,3,4-tetrahydro-isoquinolin-6-yl}-acrylamide]	< 100 nM	> 1000 nM	–
Cc1cccc(S(=O)(=O)N2Cc3ccc(/C=C/C(=O)NO)cc3C2)c1 [Example 11, (E)-N-Hydroxy-3-[2-(toluene-3-sulfonyl)-2,3-dihydro-1H-isoindol-5-yl]-acrylamide]	< 100 nM	> 1000 nM	–
Cc1c(CCN2CCc3ccc(/C=C/C(=O)NO)cc3C2)cnn1-c1ccccc1 [Example 49, (E)-N-Hydroxy-3-{2-[2-(5-methyl-1-phenyl-1H-pyrazol-4-yl)-ethyl]-1,2,3,4-tetrahydro-isoquinolin-7-yl}-acrylamide]	100 to 1000 nM	> 1000 nM	–
O=C(/C=C/c1ccc2c(c1)CN(Cc1ccccc1)C2)NO [Example 1, (E)-3-(2-Benzyl-2,3-dihydro-1H-isoindol-5-yl)-N-hydroxy-acrylamide]	100 to 1000 nM	> 1000 nM	–
CC(C)(C)c1[nH]c2ccccc2c1CCN1CCc2ccc(/C=C/C(=O)NO)cc2C1 [Example 42, (E)-3-{2-[2-(2-tert-Butyl-1H-indol-3-yl)-ethyl]-1,2,3,4-tetrahydro-isoquinolin-7-yl}-N-hydroxy-acrylamide]	< 100 nM	100 to 1000 nM	–
COc1ccc(S(=O)(=O)N2CCc3ccc(/C=C/C(=O)NO)cc3C2)cc1 [Example 56, (E)-N-Hydroxy-3-[2-(4-methoxy-benzenesulfonyl)-1,2,3,4-tetrahydro-isoquinolin-7-yl]-acrylamide]	100 to 1000 nM	> 1000 nM	–
Cc1[nH]c2ccccc2c1CCN1CCCc2cc(/C=C/C(=O)NO)ccc2C1 [Example 41, (E)-N-Hydroxy-3-{2-[2-(2-methyl-1H-indol-3-yl)-ethyl]-2,3,4,5-tetrahydro-1H-benzo[c]azepin-7-yl}-acrylamide]	< 100 nM	> 1000 nM	–
CC(C)(C)c1[nH]c2ncccc2c1CCN1CCc2ccc(/C=C/C(=O)NO)cc2C1 [Example 43, (E)-3-{2-[2-(2-tert-Butyl-1H-pyrrolo[2,3-b]pyridin-3-yl)-ethyl]-1,2,3,4-tetrahydro-isoquinolin-7-yl}-N-hydroxy-acrylamide]	< 100 nM	> 1000 nM	–
Cc1[nH]c2ccccc2c1CCN1CCc2ccc(/C=C/C(=O)NO)cc2CC1 [Example 80, (E)-N-Hydroxy-3-{3-[2-(2-methyl-1H-indol-3-yl)-ethyl]-2,3,4,5-tetrahydro-1H-benzo[d]azepin-7-yl}-acrylamide]	< 100 nM	> 1000 nM	–
Cn1cc(CCN2CCc3ccc(/C=C/C(=O)NO)cc3C2)c(-c2ccccc2)n1 [Example 46, (E)-N-Hydroxy-3-{2-[2-(1-methyl-3-phenyl-1H-pyrazol-4-yl)-ethyl]-1,2,3,4-tetrahydro-isoquinolin-7-yl}-acrylamide]	100 to 1000 nM	> 1000 nM	–
COc1cccc(S(=O)(=O)N2CCc3cc(/C=C/C(=O)NO)ccc3C2)c1 [Example 83, (E)-N-Hydroxy-3-[2-(3-methoxy-benzenesulfonyl)-1,2,3,4-tetrahydro-isoquinolin-6-yl]-acrylamide]	100 to 1000 nM	> 1000 nM	–
Cc1[nH]c2ccccc2c1CC(=O)N1Cc2ccc(/C=C/C(=O)NO)cc2C1 [Example 25, (E)-N-Hydroxy-3-{2-[2-(2-methyl-1H-indol-3-yl)-acetyl]-2,3-dihydro-1H-isoindol-5-yl}-acrylamide]	< 100 nM	> 1000 nM	–
COc1cccc(S(=O)(=O)N2Cc3ccc(/C=C/C(=O)NO)cc3C2)c1 [Example 13, (E)-N-Hydroxy-3-[2-(3-methoxy-benzenesulfonyl)-2,3-dihydro-1H-isoindol-5-yl]-acrylamide]	< 100 nM	> 1000 nM	–
O=C(/C=C/c1ccc2c(c1)CN(CCc1ccccc1)CC2)NO [Example 44, (E)-N-Hydroxy-3-(2-phenethyl-1,2,3,4-tetrahydro-isoquinolin-7-yl)-acrylamide]	100 to 1000 nM	> 1000 nM	–
O=C(/C=C/c1ccc2c(c1)CN(CCc1c[nH]c3ccccc13)C2)NO [Example 27, (E)-N-Hydroxy-3-{2-[2-(1H-indol-3-yl)-ethyl]-2,3-dihydro-1H-isoindol-5-yl}-acrylamide]	–	> 1000 nM	< 100 nM
O=C(/C=C/c1ccc2c(c1)CCN(CCc1c[nH]c3ccccc13)C2)NO [Example 68, (E)-N-Hydroxy-3-{2-[2-(1H-indol-3-yl)-ethyl]-1,2,3,4-tetrahydro-isoquinolin-6-yl}-acrylamide]	< 100 nM	> 1000 nM	–
O=C(/C=C/c1ccc2c(c1)CCN(CCC1CCCCC1)C2)NO [Example 76, (E)-3-[2-(2-Cyclohexyl-ethyl)-1,2,3,4-tetrahydro-isoquinolin-6-yl]-N-hydroxy-acrylamide]	< 100 nM	> 1000 nM	–
CC(C)(C)C(=O)N1Cc2ccc(/C=C/C(=O)NO)cc2C1 [Example 3, (E)-3-[2-(2,2-Dimethyl-propionyl)-2,3-dihydro-1H-isoindol-5-yl]-N-hydroxy-acrylamide]	100 to 1000 nM	> 1000 nM	–
